# Patent US8623857B2, “N-phenyl imidazole carboxamide inhibitors of 3-phosphoinositide-dependent protein kinase-1” (Merck Sharp & Dohme Corp., priority 2010, dated 2014)
# Target: T1, recombinant human PDK1 (Homo sapiens, UniProt O15530)
# T1 construct: containing amino acids 51-556 of the human PDK1 enzyme; made in house; host or cells: Sf9 insect cells
# T1 sequence (O15530 51-556): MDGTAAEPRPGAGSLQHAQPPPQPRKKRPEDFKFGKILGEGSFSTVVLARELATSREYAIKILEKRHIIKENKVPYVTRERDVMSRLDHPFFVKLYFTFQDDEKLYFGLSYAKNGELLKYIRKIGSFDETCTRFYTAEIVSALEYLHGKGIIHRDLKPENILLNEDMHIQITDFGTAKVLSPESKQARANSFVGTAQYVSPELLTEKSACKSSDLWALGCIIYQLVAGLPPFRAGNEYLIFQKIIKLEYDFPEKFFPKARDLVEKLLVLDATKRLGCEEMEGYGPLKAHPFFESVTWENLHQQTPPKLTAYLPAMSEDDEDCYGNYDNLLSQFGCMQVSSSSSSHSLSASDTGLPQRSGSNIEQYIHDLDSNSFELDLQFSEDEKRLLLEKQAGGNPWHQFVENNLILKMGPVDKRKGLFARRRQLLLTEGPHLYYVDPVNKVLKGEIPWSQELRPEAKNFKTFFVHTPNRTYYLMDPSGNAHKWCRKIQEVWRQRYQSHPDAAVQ
# Experiment: PDK1 IMAP fluorescence polarization assay (inhibition of peptide substrate phosphorylation)
# Format: biochemical
# [1] = Table 6, 10 nM PDK1 enzyme, 100 nM peptide substrate, 100 nM PIFtide, 2.5 uM ATP, 1.5 hours
SMILES,"IC50 (Table 10, compounds 97-132)",IC50 [1]
"CNc1nc(-c2c[nH]c(C(=O)Nc3ccccc3N3CCNCC3)n2)cc(N2CC(C(=O)NC3CCCCC3)CCC2C)n1 (racemic) [Compound 102, N-cyclohexyl-6-methyl-1-(2-(methylamino)-6-(2-(2-(piperazin-1-yl)phenylcarbamoyl)-1H-imidazol-4-yl)pyrimidin-4-yl)piperidine-3-carboxamide]",0.001 to 0.05 µM,–
"CNc1nc(-c2c[nH]c(C(=O)Nc3ccccc3N3CCNCC3)n2)cc(N2C[C@@H](C(=O)NC3CCCCC3)CC[C@@H]2C)n1 (racemic) [Compound 104, N-cyclohexyl-6-methyl-1-(2-(methylamino)-6-(2-(2-(piperazin-1-yl)phenylcarbamoyl)-1H-imidazol-4-yl)pyrimidin-4-yl)piperidine-3-carboxamide]",0.051 to 0.25 µM,–
"CNc1nc(-c2c[nH]c(C(=O)Nc3ccccc3OC3CCNCC3)n2)cc(N2CC(C(=O)NC3CCCCC3)CCC2C)n1 (racemic) [Compound 108, N-cyclohexyl-6-methyl-1-(2-(methylamino)-6-(2-(2-(piperidin-4-yloxy)phenylcarbamoyl)-1H-imidazol-4-yl)pyrimidin-4-yl)piperidine-3-carboxamide]",0.001 to 0.05 µM,–
"CNc1nc(-c2c[nH]c(C(=O)Nc3cccc(F)c3N3CCOCC3)n2)cc(N2CC(C(=O)NC3CCCCC3)CCC2C)n1 (racemic) [Compound 109, N-cyclohexyl-1-(6-(2-(3-fluoro-2-morpholinophenylcarbamoyl)-1H-imidazol-4-yl)-2-(methylamino)pyrimidin-4-yl)-6-methylpiperidine-3-carboxamide]",0.001 to 0.05 µM,–
"CNc1nc(-c2c[nH]c(C(=O)Nc3cccc(F)c3N3CCO[C@@H](CN)C3)n2)cc(N2CC(C(=O)NC3CCCCC3)CCC2C)n1 (mixture of isomers) [Compound 110, 1-(6-(2-(2-((S)-2-(aminomethyl)morpholino)-3-fluorophenylcarbamoyl)-1H-imidazol-4-yl)-2-(methylamino)pyrimidin-4-yl)-N-cyclohexyl-6-methylpiperidine-3-carboxamide]",0.001 to 0.05 µM,–
"CNc1nc(-c2c[nH]c(C(=O)Nc3cccc(F)c3N3CCO[C@H](CN)C3)n2)cc(N2CC(C(=O)NC3CCCCC3)CCC2C)n1 (mixture of isomers) [Compound 111, 1-(6-(2-(2-((R)-2-(aminomethyl)morpholino)-3-fluorophenylcarbamoyl)-1H-imidazol-4-yl)-2-(methylamino)pyrimidin-4-yl)-N-cyclohexyl-6-methylpiperidine-3-carboxamide]",0.001 to 0.05 µM,–
"CC1CCC(C(=O)NC2CCCCC2)CN1c1cc(-c2c[nH]c(C(=O)Nc3cc(N)ccc3N3CCC4(CCCNC4)CC3)n2)nc(N)n1 (racemic) [Compound 112, 1-(2-amino-6-(2-(5-amino-2-(2,9-diazaspiro[5.5]undecan-9-yl)phenylcarbamoyl)-1H-imidazol-4-yl)pyrimidin-4-yl)-N-cyclohexyl-6-methylpiperidine-3-carboxamide]",0.001 to 0.05 µM,–
CNc1nc(-c2c[nH]c(C(=O)Nc3ccccc3N3CCC4(CC3)OCCO4)n2)cc(N2CC(C(=O)NC3CCCCC3)CCC2C)n1 (racemic) [Compound 113],0.001 to 0.05 µM,–
"CNc1nc(-c2c[nH]c(C(=O)Nc3cccc(F)c3N3CCC[C@@H](N)C3)n2)cc(N2CC(C(=O)NC3CCCCC3)CCC2C)n1 (mixture of isomers) [Compound 114, 1-(6-(2-(2-((R)-3-aminopiperidin-1-yl)-3-fluorophenylcarbamoyl)-1H-imidazol-4-yl)-2-(methylamino)pyrimidin-4-yl)-N-cyclohexyl-6-methylpiperidine-3-carboxamide]",0.001 to 0.05 µM,–
"CNc1nc(-c2c[nH]c(C(=O)Nc3cccc(F)c3N3CCC4(CC3)CNC4)n2)cc(N2CC(C(=O)NC3CCCCC3)CCC2C)n1 (racemic) [Compound 118, N-cyclohexyl-1-(6-(2-(3-fluoro-2-(2,7-diazaspiro[3.5]nonan-7-yl)phenylcarbamoyl)-1H-imidazol-4-yl)-2-(methylamino)pyrimidin-4-yl)-6-methylpiperidine-3-carboxamide]",0.001 to 0.05 µM,–
"CNc1nc(-c2c[nH]c(C(=O)Nc3cccc(F)c3N3CCC4(CCNC4)CC3)n2)cc(N2CC(C(=O)NC3CCCCC3)CCC2C)n1 (racemic) [Compound 119, N-cyclohexyl-1-(6-(2-(3-fluoro-2-(2,8-diazaspiro[4.5]decan-8-yl)phenylcarbamoyl)-1H-imidazol-4-yl)-2-(methylamino)pyrimidin-4-yl)-6-methylpiperidine-3-carboxamide]",0.001 to 0.05 µM,–
"CNc1nc(-c2c[nH]c(C(=O)Nc3cccc(F)c3N3CCOC[C@H]3C)n2)cc(N2CC(C(=O)NC3CCCCC3)CCC2C)n1 (mixture of isomers) [Compound 122, N-cyclohexyl-1-(6-(2-(3-fluoro-2-((R)-3-methylmorpholino)phenylcarbamoyl)-1H-imidazol-4-yl)-2-(methylamino)pyrimidin-4-yl)-6-methylpiperidine-3-carboxamide]",0.001 to 0.05 µM,–
"Nc1ccc(N2CCC[C@@H](N)C2)c(NC(=O)c2ncc[nH]2)c1 [Compound 1, N-[5-amino-2-(3(R)-amino-1-piperidinyl)phenyl]-1H-imidazole-2-carboxamide]",–,0.051 to 0.25 µM
"CNC1(C(N)=O)CCN(c2ccc(N)cc2NC(=O)c2ncc[nH]2)CC1 [Compound 2, 1-[4-amino-2-[(1H-imidazol-2-ylcarbonyl)amino]phenyl]-4-(methylamino)-4-piperidinecarboxamide]",–,1 to 5 µM
"NCC1CCN(c2ccc(N)cc2NC(=O)c2ncc[nH]2)CC1 [Compound 3, N-[5-amino-2-[4-(aminomethyl)-1-piperidinyl]phenyl]-1H-imidazole-2-carboxamide]",–,0.251 to 1 µM
"N[C@@H]1CCCN(c2c(F)cccc2NC(=O)c2nc(-c3cnn(Cc4ccccc4)c3)c[nH]2)C1 [Compound 4, N-[2-(3(R)-amino-1-piperidinyl)-3-fluorophenyl]-4-[1-(phenylmethyl)-1H-pyrazol-4-yl]-1H-imidazole-2-carboxamide]",–,0.051 to 0.25 µM
"N[C@@H]1CCCN(c2c(F)cccc2NC(=O)c2nc(-c3cnn(Cc4cccs4)c3)c[nH]2)C1 [Compound 5, N-[2-(3(R)-amino-1-piperidinyl)-3-fluorophenyl]-4-[1-(2-thienylmethyl)-1H-pyrazol-4-yl]-1H-imidazole-2-carboxamide]",–,0.051 to 0.25 µM
"CN(C)CCOc1ccccc1NC(=O)c1nc(-c2cnn(Cc3ccccc3)c2)c[nH]1 [Compound 6, N-[2-[2-(dimethylamino)ethoxy]phenyl]-4-[1-(phenylmethyl)-1H-pyrazol-4-yl]-1H-imidazole-2-carboxamide]",–,1 to 5 µM
"N[C@@H]1CCCN(c2c(F)cccc2NC(=O)c2nc(-c3cnn(Cc4ccccn4)c3)c[nH]2)C1 [Compound 7, N-[2-(3(R)-amino-1-piperidinyl)-3-fluorophenyl]-4-[1-(2-pyridinylmethyl)-1H-pyrazol-4-yl]-1H-imidazole-2-carboxamide]",–,1 to 5 µM
"Cc1cc(-c2c[nH]c(C(=O)Nc3cccc(F)c3N3CCC[C@@H](N)C3)n2)ccn1 [Compound 8, N-[2-(3(R)-amino-1-piperidinyl)-3-fluorophenyl]-4-(2-methyl-4-pyridinyl)-1H-imidazole-2-carboxamide]",–,0.001 to 0.05 µM
"N[C@@H]1CCCN(c2c(F)cccc2NC(=O)c2nc(-c3cncc(C(F)(F)F)c3)c[nH]2)C1 [Compound 9, N-[2-(3(R)-amino-1-piperidinyl)-3-fluorophenyl]-4-[5-(trifluoromethyl)-3-pyridinyl]-1H-imidazole-2-carboxamide]",–,1 to 5 µM
"N[C@@H]1CCCN(c2c(F)cccc2NC(=O)c2nc(-c3ccncc3)c[nH]2)C1 [Compound 10, N-[2-(3(R)-amino-1-piperidinyl)-3-fluorophenyl]-4-(4-pyridinyl)-1H-imidazole-2-carboxamide]",–,0.251 to 1 µM
"N[C@@H]1CCCN(c2c(F)cccc2NC(=O)c2nc(-c3cn[nH]c3)c[nH]2)C1 [Compound 11, N-[2-(3(R)-amino-1-piperidinyl)-3-fluorophenyl]-4-(1H-pyrazol-4-yl)-1H-imidazole-2-carboxamide]",–,0.051 to 0.25 µM
"N[C@@H]1CCCN(c2c(F)cccc2NC(=O)c2nc(Br)c[nH]2)C1 [Compound 12, N-[2-(3(R)-amino-1-piperidinyl)-3-fluorophenyl]-4-bromo-1H-imidazole-2-carboxamide]",–,0.051 to 0.25 µM
"N[C@@H]1CCCN(c2c(F)cccc2NC(=O)c2nc(-c3cnn(Cc4cccnc4)c3)c[nH]2)C1 [Compound 13, N-[2-(3(R)-amino-1-piperidinyl)-3-fluorophenyl]-4-[1-(3-pyridinylmethyl)-1H-pyrazol-4-yl]-1H-imidazole-2-carboxamide]",–,0.051 to 0.25 µM
"Cn1cc(-c2c[nH]c(C(=O)Nc3cccc(F)c3N3CCC[C@@H](N)C3)n2)cn1 [Compound 14, N-[2-(3(R)-amino-1-piperidinyl)-3-fluorophenyl]-4-(1-methyl-1H-pyrazol-4-yl)-1H-imidazole-2-carboxamide]",–,0.251 to 1 µM
"NC(=O)N[C@@H]1CCCN(c2c(F)cccc2NC(=O)c2nc(Br)c[nH]2)C1 [Compound 15, N-[2-[3(R)-[(aminocarbonyl)amino]-1-piperidinyl]-3-fluorophenyl]-4-bromo-1H-imidazole-2-carboxamide]",–,1 to 5 µM
"Nc1ccc(N2CCC[C@@H](N)C2)c(NC(=O)c2nc(Br)c[nH]2)c1 [Compound 16, N-[5-amino-2-(3(R)-amino-1-piperidinyl)phenyl]-4-bromo-1H-imidazole-2-carboxamide]",–,0.051 to 0.25 µM
